Assay results published in patent US6670187B2, “Mutant Plk protein and gene encoding the same” (Riken, priority 2000, dated 2003).
Each block holds one compound with its values, some of them ahead of it. Peptide text beside a SMILES is read from it. * marks the point of attachment. Cbz = O=C(OCc1ccccc1)*

Tests used:
Plk protein = experiment: Western blotting of Plk protein level after geldanamycin treatment; format: cell-based, human; details: for Sensitivity of Plk to GA: Western blotting
Description: The cells were lysed with TENSV buffer (Schulte, T. W., et al., J. Biol. Chem., 270, 24585-24588, 1995; Hutchison, K. A., et al., J. Biol. Chem., 267, 13952-13957, 1992) at 4° C. with sonication. The lysates were subjected to electrophoresis on an SDS polyacrylamide gel. Proteins were transferred to Immobilon PVDF membrane (Millipore) and immunoblotted with anti-Plk antibody (Zymed and Santa Cruz), anti-Hsp90 antibody (AC88; Stressgen), anti-GST antibody (Santa Cruz), anti-α-tubulin antibody (Amersham), or anti-Raf-1 antibody (Santa Cruz). Detection was performed with an enhanced chemiluminescence reagent (Pierce).
The immune complexes were collected by immunoprecipitation using anti-Plk antibody and electrophoresed on an SDS-polyacrylamide gel. […] Aliquots of cell lysates were immunoprecipitated with an anti-Plk or anti-Hsp90 antibody. In the same manner, aliquots of non-immunoprecipitated cell lysates were used for Western blotting.
Aliquots of cell lysates were immunoblotted with the indicated antibodies.

U937 cells = experiment: Cell viability of geldanamycin-treated U937 cells; format: cell-based, human; details: 100 nM
Hsp90 = experiment: In vitro binding assay of GST-fused Plk proteins with HL-60 lysate, Hsp90 detected; parameters: species or system human; details: 1 μg GST-fused protein, Western blotting
Description: (§1) The PCR products were cloned into pGEM-T Easy vector (Promega) and nucleotide sequence analysis was carried out by using the dideoxynucleotide chain-termination procedure with an Applied Biosystems automated sequencer. The sequence was confirmed to be identical with a previous report (Golsteyn, R., et al., J. Cell Sci., 107, 1509-1517, 1994). Plk cDNA was inserted into pGEX-2T, and GST-fused Plk was expressed in DH5α with 0.1 mM isopropyl β-D-thiogalacto-pyranoside.
(§2) For the binding assay, 1 μg of GST-fused proteins was incubated with the lysate of HL-60 cells (1 mg) in TENSV buffer. GST-fused Plk proteins were precipitated with glutathione-agarose (Sigma). Hsp90 or α-tubulin associated with GST-fused Plk proteins was detected by Western blotting using an anti-Hsp90 or anti-α-tubulin antibody.
(§3) The circle stands for the GST protein, the dotted bar for the kinase domain (residues 53-305) and the black box for the polo-box (residues 410-439). b; GST-fused Plks, expressed in Escherichia coli, were collected with glutathione-agarose, and incubated with the lysate of HL-60 cells. After incubation, GST-fused Plks were precipitated with glutathione-agarose. Hsp90 or α-tubulin associated with GST-fused Plks was detected by Western blotting using an anti-Hsp90 or anti-α-tubulin antibody.

α-tubulin = experiment: In vitro binding assay of GST-fused Plk proteins with HL-60 lysate, α-tubulin detected; parameters: species or system human; details: 1 μg GST-fused protein, Western blotting
Description: as §1, §2, §3

binding to Hsp90 (Hsp90): can bind
Compound: K82R: GST-fused kinase negative Plk mutant

binding to Hsp90 (Hsp90): unable to bind
association of tubulin with Plk (α-tubulin): little effect
Compound: Plk/A431: GST-fused mutant Plk from A431 cells (S487G, P509S in C-terminus)

binding to Hsp90 (Hsp90): unable to bind
association of tubulin with Plk (α-tubulin): little effect
Compound: Plk/Hep G2: GST-fused mutant Plk from Hep G2 cells (N496S, R512W in C-terminus)

binding to Hsp90 (Hsp90): can bind
Compound: full-length Plk: GST-fused human full-length wild-type Plk expressed in Escherichia coli

The next lines start with the compound.

Compound: CC(C)C[C@@H](C=O)NC(=O)[C@H](CC(C)C)NC(=O)[C@H](CC(C)C)NC(=O)OCc1ccccc1 [MG132] (Cbz-Leu-Leu-Leu-aldehyde)
geldanamycin-induced destabilization of Plk protein (Plk protein; co-treatment with proteasome inhibitor): inhibited

Compound: COC1=C2C[C@@H](C)C[C@H](OC)[C@H](O)[C@@H](C)/C=C(\C)[C@H](OC(N)=O)[C@@H](OC)/C=C\C=C(/C)C(=O)NC(=CC1=O)C2=O [geldanamycin]
Sensitivity of Plk to GA (Plk protein; A431 cells, Plk S487G, P509S): −
Sensitivity of Plk to GA (Plk protein; A549 cells, Plk D457G): −
Sensitivity of Plk to GA (Plk protein; HL-60 cells, wt Plk): + (Plk protein decreased after GA treatment.)
Sensitivity of Plk to GA (Plk protein; HeLa cells, wt Plk): + (Plk protein decreased after GA treatment.)
Sensitivity of Plk to GA (Plk protein; Hep G2 cells, Plk N496S, R512W): −
Sensitivity of Plk to GA (Plk protein; Jurkat cells, wt Plk): + (Plk protein decreased after GA treatment.)
Sensitivity of Plk to GA (Plk protein; K562 cells, wt Plk): + (Plk protein decreased after GA treatment.)
Sensitivity of Plk to GA (Plk protein; MKN74 cells, Plk E569K): −
Sensitivity of Plk to GA (Plk protein; U937 cells, wt Plk): + (Plk protein decreased after GA treatment.)
cell viability (U937 cells; 12 hours): without decreasing cell viability
cell viability (majority of cells died) (U937 cells; after 2 days): 15.4±3.2%
